Converted amounts (≈) assume the structure as drawn.

Common to all, as to format: cell-based
For assay [1], the system named is Staphylococcus epidermidis ATCC12228. The experiment in a line: MIC, microbroth dilution (NCCLS). Particulars: rifS strain, Cation-Adjusted Mueller-Hinton Broth, 37° C., read-out: Antimicrobial activity (MIC).
In assay [2] the test system is Staphylococcus aureus ATCC29213 rpoB^D417Y. In words: microbe, parasite or virus in culture. Particulars: ATCC29213, read-out: Antimicrobial activity (MIC). As to the method:
(§1) Representative compounds were assayed for antimicrobial activity as follows: Minimum Inhibitory Concentrations (“MICs”) were determined by the microbroth dilution method as per NCCLS guidelines (National Committee for Clinical Laboratory Standards. 2000. Methods for dilution antimicrobial susceptibility tests for bacteria that grow aerobically, 5th ed. M7-A5. National Committee for Clinical Laboratory Standards, Wayne, Pa.), except that all growth incubations were conducted at 37° C. Bacterial cultures were tested in the following bacteriological media: S. aureus, S. epidermidis, and E. coli in Cation-Adjusted Mueller-Hinton Broth, S. pneumoniae in THY Broth supplemented with 1 mg/mL catalase under 5% CO2 atmosphere, S. pyogenes in THY Broth, E. faecalis in BHI Broth, H. influenzae in BHI Broth supplemented with 0.75 μL of 1 mg/mL NAD and 150 μL of 1 mg/ml hematin per 5 mL, and M. smegmatis in Middlebrook Broth plus ADC Enrichment.
(§2) S. aureus ATCC 29213 RpoB^H418Y is a rifampin-resistant strain with a mutation in RNA polymerase, the biological target of rifamycin antibiotics. […] S. aureus EN1252a gyrA^S84L grlA^S80F is a quinolone-resistant strain due to double mutations to DNA gyrase and topoisomerase IV, the two biological targets for quinolone antibiotics.

Assay [3] concerns Staphylococcus aureus EN1252a gyrA^S84L grlA^S80F. The experiment in a line: microbe, parasite or virus in culture. Particulars: read-out: Antimicrobial activity (MIC). The method, then:
as §1, §2

Assay [4] has as its system Staphylococcus aureus ATCC29213 rpoB^H418Y. The experiment in a line: microbe, parasite or virus in culture. Conditions: ATCC29213, read-out: Antimicrobial activity (MIC). The method, then: as §1, §2
Assay [5] relates to Enterococcus faecalis ATCC29212. The experiment in a line: MIC, microbroth dilution (NCCLS). Conditions: rifS strain, BHI Broth, 37° C., read-out: Antimicrobial activity (MIC).
Assay [6] concerns Staphylococcus aureus ATCC29213. In words: MIC, microbroth dilution (NCCLS). Conditions: rifS strain, Cation-Adjusted Mueller-Hinton Broth, 37° C., read-out: Antimicrobial activity (MIC).
Assay [7] concerns Escherichia coli ATCC25922. In words: MIC, microbroth dilution (NCCLS). Particulars: rifS strain, Cation-Adjusted Mueller-Hinton Broth, 37° C., read-out: Antimicrobial activity (MIC).
Assay [8] concerns Mycobacterium smegmatis ATCC700084. The experiment in a line: MIC, microbroth dilution (NCCLS). Conditions: Mycolicibacterium smegmatis, rifS strain, Middlebrook Broth plus ADC Enrichment, 37° C., read-out: Antimicrobial activity (MIC).
Assay [9] concerns Streptococcus pyogenes ATCC19615. The experiment in a line: MIC, microbroth dilution (NCCLS). Particulars: rifS strain, THY Broth, 37° C., read-out: Antimicrobial activity (MIC).
Assay [10] concerns Haemophilus influenzae ATCC10211. The experiment in a line: MIC, microbroth dilution (NCCLS). Conditions: rifS strain, BHI Broth with NAD and hematin, 37° C., read-out: Antimicrobial activity (MIC).
Assay [11] deals with Streptococcus pneumoniae ATCC6303. The experiment in a line: MIC, microbroth dilution (NCCLS). Conditions: rifS strain, THY Broth with 1 mg/mL catalase, 5% CO2, 37° C., read-out: Antimicrobial activity (MIC).

As for `CO[C@H]1/C=C/O[C@@]2(C)Oc3c(C)c(O)c4c(c3C2=O)C(=O)C(N2CCC(C(=O)NC3CCN(c5c(F)cc6c(=O)c(C(=O)O)cn(C7CC7)c6c5Cl)C3)CC2)=C(NC(=O)/C(C)=C\C=C\[C@H](C)[C@H](O)[C@@H](C)[C@@H](O)[C@@H](C)[C@H](OC(C)=O)[C@@H]1C)C4=O` (mixture of isomers) [Example 49, (R/S)-3-{4-[1-(3-Carboxy-8-chloro-1-cyclopropyl-6-fluoro-4-oxo-1,4-dihydroquinolin-7-yl)-pyrrolidin-3-ylcarbamoyl]-piperidin-1-yl}rifamycin S], the MIC in assay [1] was in the range of 0.008 to 0.063 µg/mL (≈ 0.00683 to 0.0538 µM); in [2] it was 0.06 to 32 µg/mL (≈ 0.0513 to 27.3 µM); in [3] it was 0.004 to 0.5 µg/mL (≈ 0.00342 to 0.427 µM); in [4], 0.06 to 16 µg/mL (≈ 0.0513 to 13.7 µM); in assay [5], 2 to 32 µg/mL (≈ 1.71 to 27.3 µM); in [6], 0.004 to 0.5 µg/mL (≈ 0.00342 to 0.427 µM). The MIC fell in the range of 0.125 to 8 µg/mL (≈ 0.107 to 6.83 µM) in assay [7]; 0.5 to 64 µg/mL in assay [8]; 0.008 to 0.063 µg/mL (≈ 0.00683 to 0.0538 µM) in assay [9]; 0.125 to 2 µg/mL (≈ 0.107 to 1.71 µM) in [10]; 0.008 to 0.125 µg/mL (≈ 0.00683 to 0.107 µM) in assay [11].

Take `COc1c(N2CC(NC(=O)C3CCN(C4=C5NC(=O)/C(C)=C\C=C\[C@H](C)[C@H](O)[C@@H](C)[C@@H](O)[C@@H](C)[C@H](OC(C)=O)[C@H](C)[C@@H](OC)/C=C/O[C@@]6(C)Oc7c(C)c(O)c(c(c7C6=O)C4=O)C5=O)CC3)C2)c(F)cc2c(=O)c(C(=O)O)cn(C3CC3)c12` [Example 53, 3-{4-[1-(3-Carboxy-1-cyclopropyl-6-fluoro-8-methoxy-4-oxo-1,4-dihydroquinolin-7-yl)-azetidin-3-ylcarbamoyl]-piperidin-1-yl}rifamycin S]: the MIC in [1] lay in the range of 0.008 to 0.063 µg/mL (≈ 0.00694 to 0.0547 µM); in [2], 0.06 to 32 µg/mL (≈ 0.0521 to 27.8 µM); in assay [3], 0.004 to 0.5 µg/mL (≈ 0.00347 to 0.434 µM); in assay [4] it was 0.06 to 16 µg/mL (≈ 0.0521 to 13.9 µM); in assay [5] it was 2 to 32 µg/mL (≈ 1.74 to 27.8 µM); in assay [6] it was 0.004 to 0.5 µg/mL (≈ 0.00347 to 0.434 µM). The MIC in [7] is 0.125 to 8 µg/mL (≈ 0.108 to 6.94 µM); in assay [8], 0.5 to 64 µg/mL; in assay [9] it was 0.008 to 0.063 µg/mL (≈ 0.00694 to 0.0547 µM); in [10], 0.125 to 2 µg/mL (≈ 0.108 to 1.74 µM); in assay [11], 0.008 to 0.125 µg/mL (≈ 0.00694 to 0.108 µM).

`COc1c(N2CCCC(NC3CCN(C4=C5NC(=O)/C(C)=C\C=C\[C@H](C)[C@H](O)[C@@H](C)[C@@H](O)[C@@H](C)[C@H](OC(C)=O)[C@H](C)[C@@H](OC)/C=C/O[C@@]6(C)Oc7c(C)c(O)c(c(c7C6=O)C4=O)C5=O)CC3)C2)c(F)cc2c(=O)c(C(=O)O)cn(C3CC3)c12` (mixture of isomers) [Example 32, (R/S)-3-{4-[1-(3-Carboxy-1-cyclopropyl-6-fluoro-8-methoxy-4-oxo-1,4-dihydroquinolin-7-yl)-piperidin-3-ylamino]-piperidin-1-yl}rifamycin S]: the MIC in [1] lay in the range of 0.008 to 0.063 µg/mL (≈ 0.00694 to 0.0547 µM); in assay [2] it was 0.06 to 32 µg/mL (≈ 0.0521 to 27.8 µM); in assay [3], 0.004 to 0.5 µg/mL (≈ 0.00347 to 0.434 µM); in assay [4], 0.06 to 16 µg/mL (≈ 0.0521 to 13.9 µM); in assay [5] it was 2 to 32 µg/mL (≈ 1.74 to 27.8 µM); in assay [6] it was 0.004 to 0.5 µg/mL (≈ 0.00347 to 0.434 µM). Also, the MIC in assay [7] was 0.125 to 8 µg/mL (≈ 0.108 to 6.94 µM); in assay [8] it was 0.5 to 64 µg/mL; in assay [9], 0.008 to 0.063 µg/mL (≈ 0.00694 to 0.0547 µM); in [10], 0.125 to 2 µg/mL (≈ 0.108 to 1.74 µM); in assay [11], 0.008 to 0.125 µg/mL (≈ 0.00694 to 0.108 µM).

For the compound `COc1c(N2CCC(C(C)NC3CCN(C4=C5NC(=O)/C(C)=C\C=C\[C@H](C)[C@H](O)[C@@H](C)[C@@H](O)[C@@H](C)[C@H](OC(C)=O)[C@H](C)[C@@H](OC)/C=C/O[C@@]6(C)Oc7c(C)c(O)c(c(c7C6=O)C4=O)C5=O)CC3)C2)c(F)cc2c(=O)c(C(=O)O)cn(C3CC3)c12` (some centres unmarked) [Example 39, 3-{4-[1-(3-Carboxy-1-cyclopropyl-6-fluoro-8-methoxy-4-oxo-1,4-dihydroquinolin-7-yl)-pyrrolidin-3-ylethylamino]-piperidin-1-yl}rifamycin S], the MIC in assay [1] was in the range of 0.008 to 0.063 µg/mL (≈ 0.00686 to 0.054 µM); in [2] it was 0.06 to 32 µg/mL (≈ 0.0514 to 27.4 µM); in assay [3] it was 0.004 to 0.5 µg/mL (≈ 0.00343 to 0.429 µM); in [4], 0.06 to 16 µg/mL (≈ 0.0514 to 13.7 µM); in [5], 2 to 32 µg/mL (≈ 1.71 to 27.4 µM); in assay [6], 0.004 to 0.5 µg/mL (≈ 0.00343 to 0.429 µM). Further, the MIC in assay [7] is 0.125 to 8 µg/mL (≈ 0.107 to 6.86 µM); in assay [8], 0.5 to 64 µg/mL; in assay [9], 0.008 to 0.063 µg/mL (≈ 0.00686 to 0.054 µM); in [10] it was 0.125 to 2 µg/mL (≈ 0.107 to 1.71 µM); in [11] it was 0.008 to 0.125 µg/mL (≈ 0.00686 to 0.107 µM).

The record behind these values is patent publication US7247634B2, “Rifamycin derivatives effective against drug-resistant microbes” (Cumbre Pharmaceuticals Inc., priority 2004, dated 2007).
